Consider eleven compounds from ChEMBL document CHEMBL1201862, “PubChem BioAssay data set” (2004).

Some test systems named below: RPMI-8226; MCF7; SF-295; LOX IMVI; IGROV-1; SW-620; PC-3; MDA-N; DU-145; U-251; SK-MEL-28; MDA-MB-231; UACC-62; CAKI-1; UACC-257; MOLT-4; SK-OV-3; T47D; HCC 2998; RXF 393.
Test in all cases: NCI anticancer screen, dose series, 48 h

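All cell lines were grown in 96-well plates and treated with compound for 48 hours. GI50: concentration for 50% inhibition of growth.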 Activity calls are given as the source filed them. No stated cut-off is given here; in the data, active = GI50 up to about 1.1 µM and inactive = higher.

For the compound `CC(C)NC(=O)OCC[S+]([O-])c1c(Cl)c(Cl)nn1C` (stereo not drawn), the GI50 in the assay with RPMI-8226 is 64.9 µM (inactive); in the assay on MCF7 it was 29.4 µM (inactive); in the assay on SF-295 it was > 100 µM (inactive); with LOX IMVI, 0.724 µM (active); with IGROV-1, 37.9 µM (inactive); with SW-620, 36.2 µM (inactive). The GI50 was > 100 µM (inactive) in the assay with PC-3; 38.7 µM (inactive) in the assay with MDA-N; > 100 µM (inactive) in the assay with DU-145; 33.2 µM (inactive) in the assay on U-251; 28.5 µM (inactive) in the assay with SK-MEL-28; 28.6 µM (inactive) with MDA-MB-231. For the same compound, the GI50 in the assay with UACC-62 is 26.6 µM (inactive); in the assay on CAKI-1 it was 37.6 µM (inactive); in the assay with UACC-257 it was > 10 µM (inactive); in the assay with MOLT-4 it was 34.8 µM (inactive); in the assay on SK-OV-3, > 100 µM (inactive); with T47D, 38.1 µM (inactive).
Regarding `CC(=O)C(=NNc1ccc(-n2c(C)nc3ccccc3c2=O)cc1)C(C)=O`, the GI50 with RPMI-8226 is 30 µM (inactive); in the assay on MCF7, > 100 µM (inactive); in the assay on SF-295, > 100 µM (inactive); with LOX IMVI, > 100 µM (inactive); in the assay on IGROV-1, > 100 µM (inactive); with SW-620 it was > 100 µM (inactive). Further, the GI50 in the assay with PC-3, with MDA-N, in the assay with DU-145, in the assay on U-251, in the assay with SK-MEL-28 and with MDA-MB-231 was > 100 µM (inactive) in each case. For the same compound, the GI50 with UACC-62 is > 100 µM (inactive); in the assay on CAKI-1 it was > 100 µM (inactive); in the assay with UACC-257, > 100 µM (inactive); with MOLT-4, 22.9 µM (inactive); in the assay on SK-OV-3, > 100 µM (inactive); in the assay on T47D, > 100 µM (inactive).
As to `CC1(C)CC[C@]2(C(=O)O)CC[C@]3(C)C(=CCC4=C5C[C@H](O)[C@H](O)[C@@](C)(CO)[C@@]5(C)CC[C@]43C)[C@@H]2C1`, the GI50 is 43.8 µM (inactive) with RPMI-8226; 44.6 µM (inactive) in the assay on MCF7; 33.7 µM (inactive) with SF-295; 24 µM (inactive) in the assay on HCC 2998; 35.7 µM (inactive) in the assay with LOX IMVI; 36.9 µM (inactive) in the assay on IGROV-1. The GI50 with SW-620 was 95.1 µM (inactive); in the assay with PC-3, 59.3 µM (inactive); in the assay on MDA-N, 47.4 µM (inactive); in the assay on DU-145 it was 33.4 µM (inactive); with U-251, 48.2 µM (inactive); in the assay on SK-MEL-28, > 100 µM (inactive). Further, the GI50 is > 100 µM (inactive) with MDA-MB-231; 46 µM (inactive) with UACC-62; 28.1 µM (inactive) in the assay on CAKI-1; 71 µM (inactive) in the assay with UACC-257; 47.3 µM (inactive) in the assay with MOLT-4; > 100 µM (inactive) with SK-OV-3. Besides, the GI50 in the assay on T47D was 28.4 µM (inactive).
With `O=C1CC2C(=O)c3ccccc3CC2c2ccccc21` (stereo not drawn), the GI50 was 15.2 µM (inactive) in the assay on RPMI-8226; 37.2 µM (inactive) with MCF7; 49.2 µM (inactive) in the assay with SF-295; 38.5 µM (inactive) in the assay on LOX IMVI; 27 µM (inactive) in the assay with IGROV-1; 49 µM (inactive) in the assay with SW-620. Also, the GI50 was 43 µM (inactive) in the assay on PC-3; 36.3 µM (inactive) in the assay with MDA-N; 50.5 µM (inactive) in the assay with DU-145; 57.4 µM (inactive) in the assay with U-251; 70.6 µM (inactive) in the assay on SK-MEL-28; > 100 µM (inactive) in the assay with MDA-MB-231. Moreover, the GI50 with UACC-62 is 35.7 µM (inactive); with UACC-257 it was 24.8 µM (inactive); in the assay on MOLT-4 it was 22.4 µM (inactive); in the assay with SK-OV-3, > 100 µM (inactive); with T47D, 49.2 µM (inactive).
On to `Nc1nc(O)c2c(n1)NCN(c1ccc(S(N)(=O)=O)cc1)C2`, for which the GI50 was > 100 µM (inactive) with RPMI-8226; > 100 µM (inactive) in the assay on MCF7; 85.9 µM (inactive) in the assay with SF-295; > 100 µM (inactive) in the assay with LOX IMVI; > 100 µM (inactive) with IGROV-1; > 100 µM (inactive) in the assay with SW-620. Besides, the GI50 in the assay on PC-3, in the assay on MDA-N, with DU-145, in the assay on U-251, in the assay with SK-MEL-28 and with MDA-MB-231 was > 100 µM (inactive) in each case. The GI50 with UACC-62, in the assay with CAKI-1, with UACC-257, with MOLT-4 and in the assay with T47D was > 100 µM (inactive) throughout.
With `Cc1ccc(S(=O)(=O)N2CCCSCCN(S(=O)(=O)c3ccc(C)cc3)CCCSCC2)cc1`, the GI50 in the assay with RPMI-8226 is > 100 µM (inactive); in the assay on MCF7, > 100 µM (inactive); in the assay on SF-295, > 100 µM (inactive); with HCC 2998, 89.5 µM (inactive); in the assay with IGROV-1, > 100 µM (inactive); in the assay with SW-620, > 100 µM (inactive). Further, the GI50 in the assay with MDA-N, in the assay on DU-145, with U-251, in the assay with SK-MEL-28, with MDA-MB-231 and with UACC-62 was > 100 µM (inactive) in each case. For the same compound, the GI50 in the assay on RXF 393 was > 100 µM (inactive); in the assay on UACC-257 it was > 100 µM (inactive); in the assay with MOLT-4, > 100 µM (inactive); in the assay with SK-OV-3 it was > 100 µM (inactive); in the assay on T47D, 17.5 µM (inactive).
Turning to `CCC(C)(O)c1cnc(CC(C)C)c(=O)n1O` (stereo not drawn), the GI50 in the assay on RPMI-8226 was 11.5 µM (inactive); with SF-295, 36.6 µM (inactive); in the assay on HCC 2998, 40.7 µM (inactive); with LOX IMVI it was 33.8 µM (inactive); with IGROV-1, 63 µM (inactive); in the assay on SW-620, 37.1 µM (inactive). The GI50 in the assay on PC-3 is 48.3 µM (inactive); in the assay on MDA-N it was 73.5 µM (inactive); in the assay on DU-145, > 100 µM (inactive); in the assay on U-251, 47.9 µM (inactive); with SK-MEL-28 it was 63.5 µM (inactive); in the assay with MDA-MB-231, 43.3 µM (inactive). Further, the GI50 was 68.2 µM (inactive) with UACC-62; > 100 µM (inactive) with RXF 393; 43.8 µM (inactive) in the assay with CAKI-1; 97.3 µM (inactive) with UACC-257; 21.4 µM (inactive) with MOLT-4; 87.5 µM (inactive) with SK-OV-3. For the same compound, the GI50 in the assay on T47D was 59.4 µM (inactive).
Regarding `COc1cc(NCC2COc3c(ccc(OC)c3OC)C2=O)c([N+](=O)[O-])cc1OC` (stereo not drawn), the GI50 is 12.3 µM (inactive) in the assay with RPMI-8226; 39.3 µM (inactive) in the assay with MCF7; 66.1 µM (inactive) in the assay with SF-295; > 100 µM (inactive) in the assay on LOX IMVI; > 100 µM (inactive) in the assay on IGROV-1; > 100 µM (inactive) in the assay on SW-620. In addition, the GI50 is 94 µM (inactive) in the assay with PC-3; > 100 µM (inactive) with MDA-N; > 100 µM (inactive) in the assay on DU-145; > 100 µM (inactive) in the assay on U-251; > 100 µM (inactive) with SK-MEL-28; 79.1 µM (inactive) with MDA-MB-231. Also, the GI50 in the assay on UACC-62 is 77.8 µM (inactive); in the assay with CAKI-1 it was > 100 µM (inactive); in the assay with UACC-257, > 100 µM (inactive); in the assay on MOLT-4, 16.4 µM (inactive); in the assay on SK-OV-3, > 100 µM (inactive); in the assay with T47D, 26.1 µM (inactive).
As to `C=C1CCC2[C@](C)(CCC[C@]2(C)C(=O)O)[C@@H]1CCc1ccoc1` (stereo partly drawn), the GI50 in the assay with RPMI-8226 was 44.7 µM (inactive); in the assay on SF-295, 47.5 µM (inactive); in the assay on HCC 2998, 43.8 µM (inactive); with LOX IMVI, 16.9 µM (inactive); in the assay on IGROV-1, 32.4 µM (inactive); in the assay on SW-620, 53.7 µM (inactive). The GI50 in the assay on PC-3 was 46 µM (inactive); in the assay with MDA-N, 61.8 µM (inactive); in the assay with DU-145 it was 43.5 µM (inactive); in the assay with SK-MEL-28, 61.1 µM (inactive); in the assay on MDA-MB-231, 49.2 µM (inactive); with UACC-62 it was 35.2 µM (inactive). Besides, the GI50 is 36.2 µM (inactive) in the assay with RXF 393; 32.8 µM (inactive) with CAKI-1; 29 µM (inactive) in the assay on UACC-257; 32.5 µM (inactive) in the assay with MOLT-4; > 100 µM (inactive) with SK-OV-3; 57.8 µM (inactive) in the assay with T47D.
Take `COC(=O)C(C)(C)NC(=O)C(Cc1ccccc1)Nc1ncnc2c1ncn2-c1ccc(OC)cc1` (stereo not drawn): the GI50 in the assay with RPMI-8226 was 72.9 µM (inactive); in the assay on MCF7 it was 23 µM (inactive); in the assay with SF-295, 73.1 µM (inactive); with HCC 2998, 50.7 µM (inactive); in the assay with LOX IMVI it was 34.2 µM (inactive); with IGROV-1, 15 µM (inactive). Moreover, the GI50 was 19.9 µM (inactive) in the assay with SW-620; 29.5 µM (inactive) in the assay with PC-3; 20.3 µM (inactive) in the assay with MDA-N; 47.3 µM (inactive) in the assay with DU-145; 26.5 µM (inactive) in the assay with U-251; 33.6 µM (inactive) in the assay with SK-MEL-28. The GI50 in the assay with MDA-MB-231 was 28.6 µM (inactive); in the assay on UACC-62, 39.1 µM (inactive); with CAKI-1 it was 32.7 µM (inactive); in the assay on UACC-257 it was 39.9 µM (inactive); with MOLT-4, > 10 µM (inactive); with SK-OV-3 it was 46.8 µM (inactive). Also, the GI50 in the assay on T47D is 17.5 µM (inactive).
On to `O=C(CN1CCN(Cc2ccccc2)CC1)N1CCCn2c1nc1ccccc1c2=O`, for which the GI50 in the assay with RPMI-8226, in the assay with MCF7, in the assay on SF-295, in the assay with HCC 2998, with LOX IMVI and with IGROV-1 was > 100 µM (inactive) in each case. The GI50 with SW-620, in the assay with PC-3, with MDA-N, with DU-145, in the assay with U-251 and in the assay on MDA-MB-231 was > 100 µM (inactive) each time. In addition, the GI50 in the assay with UACC-62, in the assay on CAKI-1, in the assay with UACC-257, with MOLT-4, in the assay on SK-OV-3 and in the assay with T47D was > 100 µM (inactive) in each case.
